From patent US20240174714A1, “TREATMENT OF SKIN DISORDERS” (priority 2021, published 2024)
Like-named read-outs stand apart in the source and are kept apart here. Square brackets hold non-standard residues; d marks the D form. Peptide text beside a SMILES is read from it. * marks the point of attachment. NH((S)CH(Me)CH2NMe2) = C[C@@H](CN(C)C)N*; NH(1-CH2NMe2-cBu) = CN(C)CC1(N*)CCC1; Gly(octyl) = CCCCCCCC[C@H](N)C(=O)O; Oxazole4CO(2-Me) = Cc1nc(C(=O)*)co1; X4 = COc1ccc2cc(C(=O)*)c(=O)oc2c1; Benzoyl(4-F) = O=C(c1ccc(F)cc1)*; hCha = N[C@@H](CCC1CCCCC1)C(=O)O; Pyrrole2CO = O=C(c1ccc[nH]1)*; X6 = O=C(c1ccnc2cc(Cl)ccc12)*; X10 = O=C(c1ccc2cccnc2c1)*; X12 = CN(C)CC1(N*)CCCC1; Aib = CC(C)(N)C(=O)O; X11 = CN(CCN*)CC(F)F; Bz = O=C(c1ccccc1)*; βAla = NCCC(=O)O

Key:
[1] = Cytotoxicity assay (Alamar Blue) on L6-cells; type: cell-based, rat
Procedure: Tests were done in triplicate.
The plates were incubated for additional 2 h.

[2] = tested on: axenic Leishmania donovani MHOM-ET-67/L82 amastigotes; test: In vitro antiprotozoal assay, axenic amastigotes; type: cell-based
Procedure: (§1) The testing of the inventive compounds against Leishmania donovani (strain MHOM/ET/67/L82) was performed in 96 well plates at concentrations in serial dilutions. Tests were done in triplicate.

[3] = tested on: intracellular Leishmania donovani MHOM-ET-67/L82 amastigotes; test: In vitro antiprotozoal assay, intracellular amastigotes; type: cell-based
Procedure: as §1

[4] = rat myoblast L6 cells, read-out: Cytotox L6 IC50
[5] = axenic amastigotes, read-out: L.don.ax. IC50
[6] = intracellular amastigotes, read-out: L.don.InMac IC50

| SMILES | IC50 at 68 h [1, 4] [nM] | IC50 [2, 5] [nM] | IC50 at 68 h ([1]; rat) [nM] | further results |
| --- | --- | --- | --- | --- |
| CCCCCCCC[C@H](NC(=O)[C@@H]1CCCN1C(=O)c1ccccc1)C(=O)N[C@@H](CC(C)C)C(=O)NC(C)(C)C(=O)N[C@@H](CC(C)C)C(=O)N[C@@H](CC(C)C)C(=O)NC(C)(C)C(=O)NC(C)(C)C(=O)NCCC(=O)N[C@@H](C)CN(C)C [Compound 5649, (2S)-2-{[(2S)-1-benzoylpyrrolidin-2-yl]formamido}-N-[(1S)-1-[(1-{[(1S)-1-{[(1S)-1-{[1-({1-[(2-{[(2S)-1-(dimethylamino)propan-2-yl]carbamoyl}ethyl)carbamoyl]-1-methylethyl}carbamoyl)-1-methylethyl]carbamoyl}-3-methylbutyl]carbamoyl}-3-methylbutyl]carbamoyl}-1-methylethyl)carbamoyl]-3-methylbutyl]decanamide] (Bz-P[Gly(octyl)]L[Aib]LL[Aib][Aib][βAla]-{NH((S)CH(Me)CH2NMe2)}) | 274 | 3.5 | – | IC50 [3, 6]: 27.2 nM |
| CCCCCCCC[C@H](NC(=O)[C@@H]1CCCN1C(=O)c1ccnc2cc(Cl)ccc12)C(=O)N[C@@H](CC(C)C)C(=O)NC(C)(C)C(=O)N[C@@H](CC(C)C)C(=O)N[C@@H](CC(C)C)C(=O)NC(C)(C)C(=O)NC(C)(C)C(=O)NCCC(=O)N[C@@H](C)CN(C)C [Compound 5768, (2S)-2-{[(2S)-1-(7-chloroquinoline-4-carbonyl)pyrrolidin-2-yl]formamido}-N-[(1S)-1-[(1-{[(1S)-1-{[(1S)-1-{[1-({1-[(2-{[(2S)-1-(dimethylamino)propan-2-yl]carbamoyl}ethyl)carbamoyl]-1-methylethyl}carbamoyl)-1-methylethyl]carbamoyl}-3-methylbutyl]carbamoyl}-3-methylbutyl]carbamoyl}-1-methylethyl)carbamoyl]-3-methylbutyl]decanamide] (X6-P[Gly(octyl)]L[Aib]LL[Aib][Aib][βAla]-{NH((S)CH(Me)CH2NMe2)}) | – | 33.5 | 627 | IC50 [3, 6]: 257 nM |
| CCCCCCCC[C@H](NC(=O)[C@@H]1CCCN1C(=O)c1cc2ccc(OC)cc2oc1=O)C(=O)N[C@@H](CC(C)C)C(=O)NC(C)(C)C(=O)N[C@@H](CC(C)C)C(=O)N[C@@H](CC(C)C)C(=O)NC(C)(C)C(=O)NC(C)(C)C(=O)NCCC(=O)N[C@@H](C)CN(C)C [Compound 5769, (2S)-N-[(1S)-1-[(1-{[(1S)-1-{[(1S)-1-{[1-({1-[(2-{[(2S)-1-(dimethylamino)propan-2-yl]carbamoyl}ethyl)carbamoyl]-1-methylethyl}carbamoyl)-1-methylethyl]carbamoyl}-3-methylbutyl]carbamoyl}-3-methylbutyl]carbamoyl}-1-methylethyl)carbamoyl]-3-methylbutyl]-2-{[(2S)-1-(7-methoxy-2-oxo-2H-chromene-3-carbonyl)pyrrolidin-2-yl]formamido}decanamide] (X4-P[Gly(octyl)]L[Aib]LL[Aib][Aib][βAla]-{NH((S)CH(Me)CH2NMe2)}) | – | 8.1 | 423 | IC50 [3, 6]: 216 nM |
| CCCCCCCC[C@H](NC(=O)[C@@H]1CCCN1C(=O)c1ccc2cccnc2c1)C(=O)N[C@@H](CC(C)C)C(=O)NC(C)(C)C(=O)N[C@@H](CC(C)C)C(=O)N[C@@H](CC(C)C)C(=O)NC(C)(C)C(=O)NC(C)(C)C(=O)NCCC(=O)N[C@@H](C)CN(C)C [Compound 5938, (2S)-N-[(1S)-1-[(1-{[(1S)-1-{[(1S)-1-{[1-({1-[(2-{[(2S)-1-(dimethylamino)propan-2-yl]carbamoyl}ethyl)carbamoyl]-1-methylethyl}carbamoyl)-1-methylethyl]carbamoyl}-3-methylbutyl]carbamoyl}-3-methylbutyl]carbamoyl}-1-methylethyl)carbamoyl]-3-methylbutyl]-2-{[(2S)-1-(quinoline-7-carbonyl)pyrrolidin-2-yl]formamido}decanamide] (X10-P[Gly(octyl)]L[Aib]LL[Aib][Aib][βAla]-{NH((S)CH(Me)CH2NMe2)}) | 714 | – | – | IC50 [2]: 13 nM |
| CCCCCCCC[C@H](NC(=O)[C@@H]1CCCN1C(=O)c1ccc[nH]1)C(=O)N[C@@H](CC(C)C)C(=O)NC(C)(C)C(=O)N[C@@H](CC(C)C)C(=O)N[C@@H](CC(C)C)C(=O)NC(C)(C)C(=O)NC(C)(C)C(=O)NCCC(=O)N[C@@H](C)CN(C)C [Compound 5939, (2S)-N-[(1S)-1-[(1-{[(1S)-1-{[(1S)-1-{[1-({1-[(2-{[(2S)-1-(dimethylamino)propan-2-yl]carbamoyl}ethyl)carbamoyl]-1-methylethyl}carbamoyl)-1-methylethyl]carbamoyl}-3-methylbutyl]carbamoyl}-3-methylbutyl]carbamoyl}-1-methylethyl)carbamoyl]-3-methylbutyl]-2-{[(2S)-1-(1H-pyrrole-2-carbonyl)pyrrolidin-2-yl]formamido}decanamide] (Pyrrole2CO-P[Gly(octyl)]L[Aib]LL[Aib][Aib][βAla]-{NH((S)CH(Me)CH2NMe2)}) | – | 8 | 611 | – |
| CCCCCCCC[C@H](NC(=O)[C@@H]1CCCN1C(=O)c1coc(C)n1)C(=O)N[C@@H](CC(C)C)C(=O)NC(C)(C)C(=O)N[C@@H](CC(C)C)C(=O)N[C@@H](CC(C)C)C(=O)NC(C)(C)C(=O)NC(C)(C)C(=O)NCCC(=O)NC1(CN(C)C)CCC1 [Compound 6253, (2S)-N-[(1S)-1-[(1-{[(1S)-1-{[(1S)-1-({1-[(1-{[2-({1-[(dimethylamino)methyl]cyclobutyl}carbamoyl)ethyl]carbamoyl}-1-methylethyl)carbamoyl]-1-methylethyl}carbamoyl)-3-methylbutyl]carbamoyl}-3-methylbutyl]carbamoyl}-1-methylethyl)carbamoyl]-3-methylbutyl]-2-{[(2S)-1-(2-methyl-1,3-oxazole-4-carbonyl)pyrrolidin-2-yl]formamido}decanamide] ({Oxazole4CO(2-Me)}-P[Gly(octyl)]L[Aib]LL[Aib][Aib][βAla]-{NH(1-CH2NMe2-cBu)}) | – | 2.6 | 945 | – |
| CCCCCCCC[C@H](NC(=O)[C@@H]1CCCN1C(=O)c1coc(C)n1)C(=O)N[C@@H](CC(C)C)C(=O)NC(C)(C)C(=O)N[C@@H](CC(C)C)C(=O)N[C@@H](CC(C)C)C(=O)NC(C)(C)C(=O)NC(C)(C)C(=O)NCCC(=O)NC1(CN(C)C)CCCC1 [Compound 6254, (2S)-N-[(1S)-1-[(1-{[(1S)-1-{[(1S)-1-({1-[(1-{[2-({1-[(dimethylamino)methyl]cyclopentyl}carbamoyl)ethyl]carbamoyl}-1-methylethyl)carbamoyl]-1-methylethyl}carbamoyl)-3-methylbutyl]carbamoyl}-3-methylbutyl]carbamoyl}-1-methylethyl)carbamoyl]-3-methylbutyl]-2-{[(2S)-1-(2-methyl-1,3-oxazole-4-carbonyl)pyrrolidin-2-yl]formamido}decanamide] ({Oxazole4CO(2-Me)}-P[Gly(octyl)]L[Aib]LL[Aib][Aib][βAla]-X12) | – | 2.5 | 528 | – |
| Cc1nc(C(=O)N2CCC[C@H]2C(=O)N[C@@H](Cc2ccccc2)C(=O)N[C@@H](CC(C)C)C(=O)NC(C)(C)C(=O)N[C@@H](CC(C)C)C(=O)N[C@@H](CC(C)C)C(=O)NC(C)(C)C(=O)NC(C)(C)C(=O)NCCC(=O)NC2(CN(C)C)CCC2)co1 [Compound 6328, (2S)-N-(1-{[(1S)-1-{[(1S)-1-({1-[(1-{[2-({1-[(dimethylamino)methyl]cyclobutyl}carbamoyl)ethyl]carbamoyl}-1-methylethyl)carbamoyl]-1-methylethyl}carbamoyl)-3-methylbutyl]carbamoyl}-3-methylbutyl]carbamoyl}-1-methylethyl)-4-methyl-2-[(2S)-2-{[(2S)-1-(2-methyl-1,3-oxazole-4-carbonyl)pyrrolidin-2-yl]formamido}-3-phenylpropanamido]pentanamide] (HELM PEPTIDE1{[Cc1nc(C(=O)[*:2])co1].P.F.L.[Aib].L.L.[Aib].[Aib].[bAla].[CN(C)CC1(N[*:1])CCC1]}$$$$V2.0) | – | 381 | 8720 | – |
| Cc1nc(C(=O)N2CCC[C@H]2C(=O)N[C@@H](CCC2CCCCC2)C(=O)N[C@@H](CC(C)C)C(=O)NC(C)(C)C(=O)N[C@@H](CC(C)C)C(=O)N[C@@H](CC(C)C)C(=O)NC(C)(C)C(=O)NC(C)(C)C(=O)NCCC(=O)NCCN(C)CC(F)F)co1 [Compound 6488, (2S)-2-[(2S)-4-cyclohexyl-2-{[(2S)-1-(2-methyl-1,3-oxazole-4-carbonyl)pyrrolidin-2-yl]formamido}butanamido]-N-(1-{[(1S)-1-{[(1S)-1-({1-[(1-{[2-({2-[(2,2-difluoroethyl)(methyl)amino]ethyl}carbamoyl)ethyl]carbamoyl}-1-methylethyl)carbamoyl]-1-methylethyl}carbamoyl)-3-methylbutyl]carbamoyl}-3-methylbutyl]carbamoyl}-1-methylethyl)-4-methylpentanamide] ({Oxazole4CO(2-Me)}-P[hCha]L[Aib]LL[Aib][Aib][βAla]-X11) | 7180 | 429 | – | – |
| CC(C)C[C@H](NC(=O)[C@H](CCC1CCCCC1)NC(=O)[C@@H]1CCCN1C(=O)c1ccc(F)cc1)C(=O)NC(C)(C)C(=O)N[C@@H](CC(C)C)C(=O)N[C@@H](CC(C)C)C(=O)NC(C)(C)C(=O)NC(C)(C)C(=O)NCCC(=O)NCCN(C)CC(F)F [Compound 8342, (2S)-2-[(2S)-4-cyclohexyl-2-{[(2S)-1-(4-fluorobenzoyl)pyrrolidin-2-yl]formamido}butanamido]-N-(1-{[(1S)-1-{[(1S)-1-({1-[(1-{[2-({2-[(2,2-difluoroethyl)(methyl)amino]ethyl}carbamoyl)ethyl]carbamoyl}-1-methylethyl)carbamoyl]-1-methylethyl}carbamoyl)-3-methylbutyl]carbamoyl}-3-methylbutyl]carbamoyl}-1-methylethyl)-4-methylpentanamide] ({Benzoyl(4-F)}-P[hCha]L[Aib]LL[Aib][Aib][βAla]-X11) | 6790 | – | – | – |
| CCCCCCCCCCCCCCCCOP(=O)([O-])OCC[N+](C)(C)C [Miltefosine, reference compound] | – | – | – | IC50 ([2]; Leishmania donovani, reference compound, L.don.ax., read-out: IC50 Concurrent): 162 nM; IC50 ([3]; Leishmania donovani, reference compound, L.don.InMac, read-out: IC50 Concurrent): 162 nM |
